The test has as its system Vcap cells (androgen receptor (+) prostate cancer cells). Briefly: CTG cell proliferation assay (CellTiter-Glo). To be noted: for viability at 0.1 µM / viability at 1 µM / viability at 10 µM: Homo sapiens, VCaP, 120 h; for Cell survival rate: notes of Table 9: 1.0 μM tested compound in combination with 1.0 μM Enzalutamide. A general note: Cellular ATP, detected with luciferase, serves as a proxy for viable cell number.

Setting [1] is: read-out: Survival rate of Vcap cells, Table 5, tested compound alone.
[2] abbreviates: read-out: Survival rate of Vcap cells, Table 5, tested compound alone, 1.0 μM.
Setting [3] is: Table 5, tested compound 0.1 μM in combination with 1 μM ODM-201.
Setting [4] is: Table 5, tested compound 1.0 μM in combination with 1 μM ODM-201.
Where [5] appears, read: Table 5, tested compound 10 μM in combination with 1 μM ODM-201.
The mark [6] stands for this setting: Table 5, tested compound alone, 1.0 μM.
Setting [7] is: read-out: Survival rate of Vcap cells, Table 10, tested compound alone.
[8] abbreviates: read-out: Survival rate of Vcap cells, Table 10, tested compound alone, 1.0 μM.
Setting [9] is: read-out: Survival rate of Vcap cells, Table 9, tested compound alone.
The mark [10] stands for this setting: read-out: Survival rate of Vcap cells, Table 9, tested compound alone, 1.0 μM.
Setting [11] is: Table 9, tested compound 0.1 μM in combination with 1 μM ARN-509.
Where [12] appears, read: Table 9, tested compound 0.1 μM in combination with 1 μM Enzalutamide.
[13] abbreviates: Table 9, tested compound 1.0 μM in combination with 1 μM ARN-509.
Setting [14] is: Table 9, tested compound 1.0 μM in combination with 1 μM Enzalutamide.
[15] abbreviates: Table 9, tested compound 10 μM in combination with 1 μM ARN-509.
Where [16] appears, read: Table 9, tested compound 10 μM in combination with 1 μM Enzalutamide.
Where [17] appears, read: read-out: Survival rate of Vcap cells, Table 3, tested compound alone.
The mark [18] stands for this setting: read-out: Survival rate of Vcap cells, Table 3, tested compound alone, 1.0 μM.
Where [19] appears, read: read-out: Survival rate of Vcap cells, Table 4, tested compound alone.
The mark [20] stands for this setting: read-out: Survival rate of Vcap cells, Table 4, tested compound alone, 1 μM.
[21] abbreviates: Table 3, tested compound 0.1 μM in combination with 1 μM ARN-509.
Setting [22] is: Table 3, tested compound 0.1 μM in combination with 1 μM Enzalutamide.
Where [23] appears, read: Table 3, tested compound 1.0 μM in combination with 1 μM ARN-509.
The mark [24] stands for this setting: Table 3, tested compound 1.0 μM in combination with 1 μM Enzalutamide.
The mark [25] stands for this setting: Table 3, tested compound 10 μM in combination with 1 μM ARN-509.
Setting [26] is: Table 3, tested compound 10 μM in combination with 1 μM Enzalutamide.
The mark [27] stands for this setting: Table 3, tested compound alone, 1.0 μM.
The mark [28] stands for this setting: Table 4, tested compound 0.1 μM in combination with 1 μM Abiraterone acetate.
Setting [29] is: Table 4, tested compound 0.1 μM in combination with 1 μM Galeterone.
The mark [30] stands for this setting: Table 4, tested compound 1 μM in combination with 1 μM Abiraterone acetate.
Where [31] appears, read: Table 4, tested compound 1 μM in combination with 1 μM Galeterone.
[32] abbreviates: Table 4, tested compound 10 μM in combination with 1 μM Abiraterone acetate.
The mark [33] stands for this setting: Table 4, tested compound 10 μM in combination with 1 μM Galeterone.
Where [34] appears, read: Table 4, tested compound alone, 1 μM.

This is an account of results in patent US20240173312A1, “Pharmaceutical Composition Comprising a Benzoheterocyclic Compound and Androgen Receptor Pathway Modulator and Application Thereof” (KANGPU BIOPHARMACEUTICALS, LTD., priority 2015, published 2024).

SMILES strings stand for the structures. Read-outs that look alike come from different tables or passages of the source.

Protocol: In vitro test of the inhibition effect of the compound in combination with androgen receptor pathway modulators and the like on the prostate cancer cell proliferation.
The tested compounds were used alone or in combination with other androgen receptor pathway modulators respectively. […] After that, 100 μl of CellTiter-Glo® cell viability assay reagent (Promega, catalogue number G7570) was added to each well and mixed well on a vibrator for 10 minutes to induce cell lysis. The 96-well plate was placed at room temperature for 10 minutes, so as to stabilize its luminescence signal. A white bottom membrane was pasted on the bottom of the plate and the plate was tested using EnSpire.

Consider `O=C1CC[C@H](N2Cc3c(OCc4ccc(CN5CCOCC5)cc4)cccc3C2=O)C(=O)N1` [D108], for which the viability at 0.1 µM under setting [1] came out at 73%. In addition, the viability at 1 µM under setting [2] turned out to be 67.3%. Under setting [1], the viability at 10 µM is 58.5%. Further, the “Survival rate of Vcap cells” value runs as follows: under setting [3], 42.7%; under setting [4], 40.1%; under setting [5], 32.8%; under setting [6], 67.3%.

`C[C@]12CC[C@H](O)CC1=CC[C@@H]1[C@@H]2CC[C@]2(C)C(c3cccnc3)=CC[C@@H]12` [Abiraterone, reference compound]: the viability at 0.1 µM under setting [7] was 98.5%. For the same molecule, the viability at 1 µM under setting [8] was 92.4%. Besides, under setting [7], the viability at 10 µM turned out to be 81.9%. The “Survival rate of Vcap cells” value by setting is: (Table 10, tested compound 0.1 μM in combination with 1 μM B001) 78.9%; (Table 10, tested compound 1.0 μM in combination with 1 μM B001) 74.9%; (Table 10, tested compound 10 μM in combination with 1 μM B001) 66.3%.

Regarding `[2H][C@@]1(N2Cc3c(N)cccc3C2=O)CCC(=O)NC1=O` [B006], the Cell survival rate is 51.7%. Besides, under setting [9], the viability at 0.1 µM is 91.7% and the viability at 10 µM is 85.7%. Under setting [10], the viability at 1 µM is 89.7%. Also, the “Survival rate of Vcap cells” value under setting [11] is 63.2%. Also, the “Survival rate of Vcap cells” value under setting [12] is 61.2%. For the same molecule, the “Survival rate of Vcap cells” value under setting [13] was found to be 51.7%. Moreover, under setting [14], the “Survival rate of Vcap cells” value was 50.5%. The “Survival rate of Vcap cells” value under setting [15] is 45.0%. The “Survival rate of Vcap cells” value under setting [16] is 48.3%.

Turning to `Nc1cccc2c1CN([C@H]1CCC(=O)NC1=O)C2=O` [B002], the Cell survival rate was 44.7%. Under setting [9], the viability at 0.1 µM was found to be 85.6% and the viability at 10 µM was 75.9%. The viability at 1 µM under setting [10] came out at 79.8%. For the same molecule, under setting [11], the “Survival rate of Vcap cells” value came out at 52.5%. Besides, the “Survival rate of Vcap cells” value under setting [12] is 53.9%. In addition, the “Survival rate of Vcap cells” value under setting [13] is reported as 44.7%. Further, the “Survival rate of Vcap cells” value under setting [14] was 44.7%. Further, the “Survival rate of Vcap cells” value under setting [15] worked out at 44.3%. The “Survival rate of Vcap cells” value under setting [16] is given as 43.1%.

`[2H]C1(N2Cc3c(N)cccc3C2=O)CCC(=O)NC1=O` (centres unmarked) [B004]: the Cell survival rate is on record as 51.2%. Further, under setting [9], the viability at 0.1 µM was found to be 94.1% and the viability at 10 µM was found to be 88%. Besides, the viability at 1 µM under setting [10] amounted to 88.4%. Further, the “Survival rate of Vcap cells” value under setting [11] stood at 59.1%. Besides, under setting [12], the “Survival rate of Vcap cells” value was 60.4%. Also, the “Survival rate of Vcap cells” value under setting [13] worked out at 51.2%. The “Survival rate of Vcap cells” value under setting [14] is 50.8%. The “Survival rate of Vcap cells” value under setting [15] is given as 48.0%. The “Survival rate of Vcap cells” value under setting [16] was 51.1%.

Consider `Nc1cccc2c1CN([C@@H]1CCC(=O)NC1=O)C2=O` [B003], for which the viability at 0.1 µM under setting [9] amounted to 83.7%. The viability at 1 µM under setting [10] was determined as 81.3%. The viability at 10 µM under setting [9] was found to be 80.4%. Besides, the “Survival rate of Vcap cells” value under setting [11] was determined as 54.0%; the “Survival rate of Vcap cells” value under setting [13] stood at 46.5%; the “Survival rate of Vcap cells” value under setting [14] stood at 45.4%; the “Survival rate of Vcap cells” value under setting [15] stood at 42.4%; the “Survival rate of Vcap cells” value under setting [16] was determined as 44.2%.

As for `O=C1CCC(N2Cc3c(OCc4ccc(CN5CCOCC5)cc4)cccc3C2=O)C(=O)N1` (centres unmarked) [D107], the viability at 0.1 µM was 85.3% under setting [17] and 85.3% under setting [19]. In addition, the viability at 1 µM is, setting by setting: under setting [18], 77.2%; under setting [20], 77.2%. The viability at 10 µM reads like this: under setting [17], 69.3%; under setting [19], 69.3%. Also, the “Survival rate of Vcap cells” value is 37.0% under setting [21]; 37.3% under setting [22]; 36.3% under setting [23]; 35.0% under setting [24]; 34.2% under setting [25]; 32.3% under setting [26]. The “Survival rate of Vcap cells” value is 77.2% under setting [27]; 66.0% under setting [28]; 43.9% under setting [29]; 61.7% under setting [30]; 42.4% under setting [31]; 59.6% under setting [32]. In addition, the “Survival rate of Vcap cells” value under setting [33] is given as 40.0% and the “Survival rate of Vcap cells” value under setting [34] is 77.2%.

As for `Cc1nc2cccc(N)c2c(=O)n1C1CCC(=O)NC1=O` (centres unmarked) [K001], the viability at 0.1 µM under setting [17] stood at 85.1%, the viability at 0.1 µM under setting [19] amounted to 85.1%, the viability at 0.1 µM under setting [1] came to 79.2% and the viability at 0.1 µM under setting [7] came out at 91.2%. In addition, the viability at 1 µM came out at 65.8% under setting [18], 65.8% under setting [20], 59.7% under setting [2] and 73.8% under setting [8]. Moreover, the viability at 10 µM is, setting by setting: under setting [17], 61.4%; under setting [19], 61.4%; under setting [1], 51%; under setting [7], 66.1%. Moreover, the “Survival rate of Vcap cells” value amounted to 43.6% under setting [21]; 42.4% under setting [22]; 36.0% under setting [23]; 36.4% under setting [24]; 33.5% under setting [25]; 35.1% under setting [26]. Besides, the “Survival rate of Vcap cells” value runs as follows: under setting [27], 65.8%; under setting [28], 70.4%; under setting [29], 49.1%; under setting [30], 53.1%; under setting [31], 41.3%; under setting [32], 48.1%. For the same molecule, the “Survival rate of Vcap cells” value runs as follows: under setting [33], 39.4%; under setting [34], 65.8%; under setting [3], 53.5%; under setting [4], 40.4%; under setting [5], 35.2%; under setting [6], 59.7%.
